Calls of active or inactive are those of the source. No cut-off for these calls is given here.
Experiments:
Type in all cases: functional, cell-based
K562 = assay: Cytotoxicity against human K562 cells after 48 hrs by MTT assay; settings: K562, 48 h
BT-474 = assay: Cytotoxicity against human BT474 cells after 48 hrs by MTT assay
MDA-MB-231 = assay: Cytotoxicity against human MDA-MB-231 cells after 48 hrs by MTT assay
MCF7 = assay: Cytotoxicity against human MCF7 cells after 48 hrs by MTT assay; settings: MCF7, 48 h

Row | Structure (SMILES) | IC50 (K562) [µM] | Activity (BT-474) | Activity (MDA-MB-231) | IC50 (MCF7) [µM]
1 | Oc1ccc(CCc2cc(O)cc(O)c2)cc1 [DIHYDRORESVERATROL] | < 1 | inactive | inactive | –
2 | O=c1c(-c2ccc(O)cc2)coc2cc(O)cc(O)c12 [GENISTEIN] | – | – | – | 1

— ChEMBL document CHEMBL1255173, “Dihydro-resveratrol--a potent dietary polyphenol” (Bioorg Med Chem Lett, 2010)
